A word on the Kd: it is a measure of binding affinity in units of concentration. In general, EC50 refers to the concentration needed to bring the measured effect to its halfway point.

Structures are written as SMILES.

The target of data set [1] is T1, hWNK3 (Homo sapiens, UniProt Q9BYP7).
T1 construct: host or cells: HEK293T
Kind of data set: MST, WNK kinase family member WNK3. It counts as binding. The protocol:
To validate the direct binding of bilirubin to WNK1, we performed a Microscale Thermophoresis (MST) analysis, which assesses the binding capacity of a compound by measuring the movement of proteins over a microscopic temperature gradient.^[ [26], [27] ^] We overexpressed full‐length WNK1 fused with Green Fluorescent Protein (GFP) in HEK‐293 cells, incubated the lysates with bilirubin at varying dilutions, and subjected them to precise MST measurements in capillaries. […] Furthermore, biliverdin, a structurally similar intermediate product generated before bilirubin formation, was used as a control.
All WNK1 clones were derived from the original untagged hWNK1 cDNA (NM_018979), which was modified and subcloned into the pcDNA3.1, referred to as “full‐length WNK1” throughout this study. Truncated constructs, including 1–190aa, 191–491aa, 1–491aa, and 491–2382aa fragments, were generated by PCR using the full‐length template and subsequently ligated into linearized pcDNA3.1 vectors. WNK2 was obtained from Addgene Plasmid #24569, and WNK3 was obtained from Addgene Plasmid #81723. Both were subjected to base modifications and cloned into pcDNA3.1. The WNK4 clone was derived from hWNK4 cDNA (NM_032387.5), modified, and subcloned into the pCMV3‐C‐GFPSpark vector.
In HEK293T cells, proteins tagged with green fluorescent protein (GFP) were expressed. […]

The target of data set [2] is T2, hWNK1 (181–507) (Homo sapiens, UniProt Q9H4A3).
T2 construct: the amino acid fragment 181–507 of human WNK1 (hWNK1)
Nature of the data set: ADP-Glo kinase assay, purified hWNK1 kinase domain. It counts as biochemical. The settings on record: ADP production, luminescence normalized to reactions lacking bilirubin; 12 serial dilutions from 20 µM; read-out: EC50, activation of WNK1 kinase activity. An excerpt:
Given the binding of bilirubin to the kinase domain of WNK1, we aimed to explore its effect on WNK1 with a particular focus on its kinase activity. To evaluate WNK1 kinase activity, we utilized an in vitro kinase enzyme assay system to quantify ADP production by the amino acid fragment 181–507 of human WNK1 (hWNK1) over a range of bilirubin concentrations. The kinase‐dead WNK1 mutant hWNK1(181–507 S382A) served as a negative control (Figure S10, Supporting Information).^[ [30] ^]
WNK1 kinase activity was measured using the ADP‐Glo Kinase Assay (Promega, Cat. V9101) following the manufacturer's instructions. Purified protein was incubated with bilirubin across a range of 12 serially diluted concentrations, beginning at a maximum concentration of 20 µM. After the incubation period, luminescence was recorded using a microplate reader (Synergy H1M, BioTek)

The subject of data set [3] is HEK 293T cell line. Nature of the data set: MQAE intracellular chloride measurement in HEK 293T cell line. The class given is cell-based, human. The settings on record: lacking KCC2 expression. The text has this: Since bilirubin‐induced activation of WNK1 kinase activity increases [Cl⁻]i in neurons, we sought to elucidate the downstream effector proteins of WNK1 that are involved in this process. Neuronal [Cl⁻]i is primarily regulated by the Cl⁻‐K⁺ symporter KCC2, with additional modulation by factors such as the Na⁺‐K⁺‐Cl⁻ co‐transporter NKCC1, GABAA receptors, and glycine receptors (GlyR), all of which contribute to [Cl⁻]i homeostasis.^[ [31] ^] To investigate the mechanism underlying bilirubin‐induced changes in [Cl⁻]i, we selectively targeted these proteins using pharmacological inhibitors (VU0463271 for KCC2, bumetanide for NKCC1, bicuculline for GABAA receptors, and strychnine for GlyR) and activated KCC2 using CLP257.^[ [35], [36] ^] […] The bilirubin‐induced effect on [Cl⁻]i was not observed in primary astrocytes (Figure S15A,B, Supporting Information) or the HEK 293T cell line (Figure S15C, Supporting Information), both of which lacked KCC2 expression (Figure S16A,B, Supporting Information), further confirming that the effects of bilirubin and WNK1 on [Cl⁻]i elevation are dependent on KCC2.
Intracellular chloride concentration ([Cl⁻]i) was measured using the MQAE fluorescent dye (Life Technologies) following established protocols (Zhang, Lee et al. 2015). […]

Data set [4] is described as follows: Osmolarity of different bilirubin concentrations. The class given is physicochemical. The settings on record: low concentrations of bilirubin. The text has this: To further investigate the impact of bilirubin on WNK1 kinase activity, we generated hippocampal neuron‐specific Wnk1 knockout mice. Given that conventional Wnk1 knockout mice are embryonically lethal, we employed the CRISPR/Cas9 method to create mice carrying the floxed Wnk1 gene. Then we crossed Thy1‐Cre mice with Wnk1^flox/flox mice to generate hippocampal neuron‐specific Wnk1 knockout mice. We examined the effects of bilirubin on the phosphorylation of WNK1 downstream targets, Ste20‐related proline alanine‐rich kinase (SPAK), and oxidative stress‐responsive kinase 1 (OSR1), in the hippocampus of Wnk1^flox/flox and Wnk1^flox/flox,Thy1‐Cre mice. Upon bilirubin treatment, phosphorylation of OSR1 and SPAK was elevated in the hippocampus of Wnk1^flox/flox mice. […] These findings indicate that the effect of bilirubin on OSR1 and SPAK phosphorylation is WNK1‐dependent (Figure 4B). To rule out the potential effects of osmolarity on the phosphorylation of WNK1, OSR1, and SPAK, we measured the osmolarity of different bilirubin concentrations.

Data set [5] concerns the target PPARα. Also noted: method as in PMID 37390966, PMID 34067839. The settings on record: liver and adipose tissue; cited from earlier work.
Data set [6] addresses MRGPRs. Also noted: method as in PMID 37390966, PMID 30657454. The settings on record: peripheral sensory neurons; cited from earlier work.

T1 sequence (Q9BYP7 whole entry): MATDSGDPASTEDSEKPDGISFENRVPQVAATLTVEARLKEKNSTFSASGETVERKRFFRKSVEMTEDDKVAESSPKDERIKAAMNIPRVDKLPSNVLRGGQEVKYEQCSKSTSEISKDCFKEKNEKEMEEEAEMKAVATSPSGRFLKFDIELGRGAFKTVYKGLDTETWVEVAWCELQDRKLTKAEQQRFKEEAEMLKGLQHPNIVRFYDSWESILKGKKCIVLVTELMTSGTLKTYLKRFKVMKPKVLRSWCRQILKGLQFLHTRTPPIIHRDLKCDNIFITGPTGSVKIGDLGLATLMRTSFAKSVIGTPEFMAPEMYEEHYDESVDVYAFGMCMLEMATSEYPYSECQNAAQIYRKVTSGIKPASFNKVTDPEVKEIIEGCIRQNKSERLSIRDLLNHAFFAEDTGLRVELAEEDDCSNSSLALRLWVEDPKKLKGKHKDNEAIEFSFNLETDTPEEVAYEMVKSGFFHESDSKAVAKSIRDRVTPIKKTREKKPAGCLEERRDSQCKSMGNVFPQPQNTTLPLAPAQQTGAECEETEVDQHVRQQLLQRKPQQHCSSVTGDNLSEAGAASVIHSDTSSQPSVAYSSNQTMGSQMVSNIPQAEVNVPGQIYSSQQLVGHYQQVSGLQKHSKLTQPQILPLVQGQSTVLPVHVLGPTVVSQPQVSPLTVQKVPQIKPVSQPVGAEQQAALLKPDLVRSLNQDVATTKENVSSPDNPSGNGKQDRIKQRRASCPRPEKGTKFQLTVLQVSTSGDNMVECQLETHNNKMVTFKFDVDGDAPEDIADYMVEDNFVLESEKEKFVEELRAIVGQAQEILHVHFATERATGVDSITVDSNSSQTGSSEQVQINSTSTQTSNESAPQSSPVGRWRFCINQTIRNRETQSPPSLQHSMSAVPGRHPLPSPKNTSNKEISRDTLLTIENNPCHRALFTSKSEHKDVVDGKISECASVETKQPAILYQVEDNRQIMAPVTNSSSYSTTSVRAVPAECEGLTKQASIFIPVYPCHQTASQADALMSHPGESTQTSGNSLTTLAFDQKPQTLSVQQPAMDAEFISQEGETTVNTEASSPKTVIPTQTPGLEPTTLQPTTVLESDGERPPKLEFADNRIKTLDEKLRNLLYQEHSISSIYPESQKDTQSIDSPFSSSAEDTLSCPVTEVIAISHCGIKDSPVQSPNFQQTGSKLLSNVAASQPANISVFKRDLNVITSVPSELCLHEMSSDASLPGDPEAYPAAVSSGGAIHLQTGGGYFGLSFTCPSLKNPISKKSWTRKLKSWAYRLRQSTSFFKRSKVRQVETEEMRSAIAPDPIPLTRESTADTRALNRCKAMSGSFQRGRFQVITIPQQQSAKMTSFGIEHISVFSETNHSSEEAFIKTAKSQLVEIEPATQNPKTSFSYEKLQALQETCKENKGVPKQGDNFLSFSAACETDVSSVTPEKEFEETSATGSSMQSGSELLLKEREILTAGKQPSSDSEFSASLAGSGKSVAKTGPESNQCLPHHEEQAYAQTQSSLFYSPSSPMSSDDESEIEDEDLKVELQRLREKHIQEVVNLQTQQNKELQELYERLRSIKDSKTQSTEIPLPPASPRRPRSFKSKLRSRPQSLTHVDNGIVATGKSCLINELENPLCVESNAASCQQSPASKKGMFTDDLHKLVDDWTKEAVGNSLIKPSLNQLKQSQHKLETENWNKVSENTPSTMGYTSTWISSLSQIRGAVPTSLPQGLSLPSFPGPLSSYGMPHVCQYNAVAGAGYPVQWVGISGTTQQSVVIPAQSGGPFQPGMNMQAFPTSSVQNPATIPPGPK
T2 sequence (Q9H4A3 181-507): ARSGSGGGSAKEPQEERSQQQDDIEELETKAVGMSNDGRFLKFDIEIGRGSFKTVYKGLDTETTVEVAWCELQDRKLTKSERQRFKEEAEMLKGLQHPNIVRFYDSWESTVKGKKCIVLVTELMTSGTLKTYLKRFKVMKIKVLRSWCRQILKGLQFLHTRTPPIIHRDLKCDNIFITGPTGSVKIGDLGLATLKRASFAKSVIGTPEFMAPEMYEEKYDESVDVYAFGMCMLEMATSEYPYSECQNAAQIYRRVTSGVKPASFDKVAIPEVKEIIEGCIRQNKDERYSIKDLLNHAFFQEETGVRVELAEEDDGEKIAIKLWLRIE

For the molecule `C=CC1=C(C)/C(=C/c2[nH]c(Cc3[nH]c(/C=C4\NC(=O)C(C)=C4C=C)c(C)c3CCC(=O)O)c(CCC(=O)O)c2C)NC1=O` [bilirubin, Bilirubin], the Kd is 0.76 µM in data set [1], 5.13 µM in data set [5] and 54.4 to 92.9 µM in data set [6]. In addition, the EC50 in data set [2] was 0.896 µM. Also, in data set [3], the “bilirubin-induced effect on [Cl−]i” value is listed as “not observed”. Further, in data set [4], the osmolarity result is “didn't change the osmolarity”.

Source of the values: publication PMC12362796, “Bilirubin Targeting WNK1 to Alleviate NLRP3‐Mediated Neuroinflammation” (Advanced Science, 2025).
